Reference: US20060211755A1, “3-oxo-1, 3-dihydro-indazole-2-carboxylic acid amide derivatives as phospholipase inhibitors” (Eli Lilly and Company Patent Division, priority 2003, published 2006)

Structure (SMILES)	melting point
CCCNC(=O)n1[nH]c2ccccc2c1=O [Example 1, 3-Oxo-1,3-dihydro-indazole-2-carboxylic acid propylamide]	153 to 155 °C
CCCCCNC(=O)n1[nH]c2ccccc2c1=O [Example 2, 3-Oxo-1,3-dihydro-indazole-2-carboxylic acid pentylamide]	119 to 120 °C
CC(C)CCCCNC(=O)n1[nH]c2ccccc2c1=O [Example 5, 3-Oxo-1,3-dihydro-indazole-2-carboxylic acid (5-methyl-hexyl)-amide]	134 to 136 °C
Cc1ccccc1CNC(=O)n1[nH]c2ccccc2c1=O [Example 16, 3-Oxo-1,3-dihydro-indazole-2-carboxylic acid 2-methyl-benzylamide]	166 to 168 °C
Cc1cccc(CNC(=O)n2[nH]c3ccccc3c2=O)c1 [Example 17, 3-Oxo-1,3-dihydro-indazole-2-carboxylic acid 3-methyl-benzylamide]	179 to 180 °C
COc1cccc(CNC(=O)n2[nH]c3ccccc3c2=O)c1 [Example 24, 3-Oxo-1,3-dihydro-indazole-2-carboxylic acid 3-methoxy-benzylamide]	186 to 188 °C
Cc1ccccc1CNC(=O)n1[nH]c2cccc(C(=O)O)c2c1=O [Example 52, 2-(2-Methyl-benzylcarbamoyl)-3-oxo-2,3-dihydro-1H-indazole-4-carboxylic acid]	> 250 °C
Cc1ccccc1CNC(=O)n1[nH]c2c(C(=O)O)cccc2c1=O [Example 55, 2-(2-Methyl-benzylcarbamoyl)-3-oxo-2,3-dihydro-1H-indazole-7-carboxylic acid]	> 250 °C
Cc1ccc(F)cc1CNC(=O)n1[nH]c2cccc(C(=O)O)c2c1=O [Example 57, 2-(5-Fluoro-2-methyl-benzylcarbamoyl)-3-oxo-2,3-dihydro-1H-indazole-4-carboxylic acid]	230 °C (dec.)
Cc1ccc(F)cc1CNC(=O)n1[nH]c2c(C(=O)O)cccc2c1=O [Example 58, 2-(5-Fluoro-2-methyl-benzylcarbamoyl)-3-oxo-2,3-dihydro-1H-indazole-7-carboxylic acid]	> 250 °C
CCCCc1ccc(CNC(=O)n2[nH]c3cccc(C(=O)O)c3c2=O)c(C)c1 [Example 68, 2-(4-Butyl-2-methyl-benzylcarbamoyl)-3-oxo-2,3-dihydro-1H-indazole-4-carboxylic acid]	173 to 175 °C
CC(C)c1cccc(C(C)C)c1CNC(=O)n1[nH]c2c(C(=O)O)cccc2c1=O [Example 72, 2-(2,6-Diisopropyl-benzylcarbamoyl)-3-oxo-2,3-dihydro-1H-indazole-7-carboxylic acid]	> 250 °C
O=C(O)c1cccc2[nH]n(C(=O)NCCCCc3ccccc3)c(=O)c12 [Example 75, 3-Oxo-2-(4-phenyl-butylcarbamoyl)-2,3-dihydro-1H-indazole-4-carboxylic acid]	> 250 °C
O=C(O)c1cccc2[nH]n(C(=O)NCCCCC3CCCCC3)c(=O)c12 [Example 76, 2-(4-Cyclohexyl-butylcarbamoyl)-3-oxo-2,3-dihydro-1H-indazole-4-carboxylic acid]	196 to 198 °C
CCCCCCNC(=O)n1[nH]c2cccc(C(=O)O)c2c1=O [Example 78, 2-Hexylcarbamoyl-3-oxo-2,3-dihydro-1H-indazole-4-carboxylic acid]	> 250 °C
CCCn1c2c(C(=O)O)cccc2c(=O)n1C(=O)NCc1c(C)cccc1CC [Example 81, 2-(2-Ethyl-6-methyl-benzylcarbamoyl)-3-oxo-1-propyl-2,3-dihydro-1H-indazole-7-carboxylic acid]	> 250 °C
CCc1cccc(C)c1CNC(=O)n1c(=O)c2cccc(C(=O)O)c2n1CC(=O)O [Example 82, 1-Carboxymethyl-2-(2-ethyl-6-methyl-benzylcarbamoyl)-3-oxo-2,3-dihydro-1H-indazole-7-carboxylic acid]	172 to 174 °C
CCc1cccc(C)c1CNC(=O)n1c(=O)c2cccc(C(=O)O)c2n1CC(=O)OC [Example 83, 2-(2-Ethyl-6-methyl-benzylcarbamoyl)-1-methoxycarbonylmethyl-3-oxo-2,3-dihydro-1H-indazole-7-carboxylic acid]	220 to 222 °C
Cc1cccc(C(C)(C)C)c1CNC(=O)n1c(=O)c2cccc(C(=O)O)c2n1C [Example 97, 2-(2-tert-Butyl-6-methyl-benzylcarbamoyl)-1-methyl-3-oxo-2,3-dihydro-1H-indazole-7-carboxylic acid]	> 250 °C
CCc1cccc(CC)c1CNC(=O)n1c(=O)c2cccc(C(=O)O)c2n1C [Example 98, 2-(2,6-Diethyl-benzylcarbamoyl)-1-methyl-3-oxo-2,3-dihydro-1H-indazole-7-carboxylic acid]	> 250 °C
CCCCCCNC(=O)n1[nH]c2cccc(C(=O)OC)c2c1=O [Example 99, 2-Hexylcarbamoyl-3-oxo-2,3-dihydro-1H-indazole4-carboxylic acid methyl ester]	63 to 65 °C
C=CCOC(=O)c1cccc2[nH]n(C(=O)NCCCCCC)c(=O)c12 [Example 100, 2-Hexylcarbamoyl-3-oxo-2,3-dihydro-1H-indazole-4-carboxylic acid allyl ester]	67 to 69 °C

Further lines, results first:

melting point	Structure (SMILES)
235 °C (dec.)	Cc1ccc2c(=O)n(C(=O)NCc3ccccc3C)[nH]c2c1 [Example 45, 6-Methyl-3-oxo-1,3-dihydro-indazole-2-carboxylic acid 2-methyl-benzylamide]
> 250 °C	Cc1ccccc1CNC(=O)n1[nH]c2ccc(C(=O)O)cc2c1=O [Example 53, 2-(2-Methyl-benzylcarbamoyl)-3-oxo-2,3-dihydro-1H-indazole-5-carboxylic acid]
> 250 °C	Cc1cccc(C)c1CNC(=O)n1[nH]c2cccc(C(=O)O)c2c1=O [Example 59, 2-(2,6-Dimethyl-benzylcarbamoyl)-3-oxo-2,3-dihydro-1H-indazole-4-carboxylic acid]
> 250 °C	Cc1cccc(C)c1CNC(=O)n1[nH]c2c(C(=O)O)cccc2c1=O [Example 60, 2-(2,6-Dimethyl-benzylcarbamoyl)-3-oxo-2,3-dihydro-1H-indazole-7-carboxylic acid]
> 250 °C	CCc1cccc(C)c1CNC(=O)n1[nH]c2cccc(C(=O)O)c2c1=O [Example 61, 2-(2-Ethyl-6-methyl-benzylcarbamoyl)-3-oxo-2,3-dihydro-1H-indazole-4-carboxylic acid]
> 250 °C	CCc1cccc(C)c1CNC(=O)n1[nH]c2ccc(C(=O)O)cc2c1=O [Example 62, 2-(2-Ethyl-6-methyl-benzylcarbamoyl)-3-oxo-2,3-dihydro-1H-indazole-5-carboxylic acid]
> 250 °C	CCc1cccc(C)c1CNC(=O)n1[nH]c2cc(C(=O)O)ccc2c1=O [Example 63, 2-(2-Ethyl-6-methyl-benzylcarbamoyl)-3-oxo-2,3-dihydro-1H-indazole-6-carboxylic acid]
> 250 °C	CCc1cccc(C)c1CNC(=O)n1[nH]c2c(C(=O)O)cccc2c1=O [Example 64, 2-(2-Ethyl-6-methyl-benzylcarbamoyl)-3-oxo-2,3-dihydro-1H-indazole-7-carboxylic acid]
> 250 °C	CCc1cccc(CC)c1CNC(=O)n1[nH]c2cccc(C(=O)O)c2c1=O [Example 69, 2-(2,6-Diethyl-benzylcarbamoyl)-3-oxo-2,3-dihydro-1H-indazole-4-carboxylic acid]
> 250 °C	CCc1cccc(CC)c1CNC(=O)n1[nH]c2c(C(=O)O)cccc2c1=O [Example 70, 2-(2,6-Diethyl-benzylcarbamoyl)-3-oxo-2,3-dihydro-1H-indazole-7-carboxylic acid]
> 250 °C	CCc1cccc(C)c1CNC(=O)n1c(=O)c2cccc(C(=O)O)c2n1C [Example 79, 2-(2-Ethyl-6-methyl-benzylcarbamoyl)-1-methyl-3-oxo-2,3-dihydro-1H-indazole-7-carboxylic acid]
> 250 °C	CCc1cccc(C)c1CNC(=O)n1c(=O)c2cccc(C(=O)O)c2n1CC [Example 80, 1-Ethyl-2-(2-ethyl-6-methyl-benzylcarbamoyl)-3-oxo-2,3-dihydro-1H-indazole-7-carboxylic acid]
